#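 Protocol summary: plate cells (96-well), add compound at 5 concentrations, incubate 48 h, interpolate endpoints linearly. Here, GI50 denotes the concentration required for 50% inhibition of growth. TGI marks complete inhibition of growth.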
# Assays:
# Assay in all cases: inhibition of tumour cell growth, NCI panel, 48 h
# [1] = test system: SK-OV-3 ovarian
# [2] = test system: SF-268 CNS
# [3] = test system: U251 CNS
# [4] = test system: CAKI-1 renal
# [5] = test system: A498 renal
# [6] = test system: HL-60(TB) leukemia
# [7] = test system: MOLT-4 leukemia
# [8] = test system: RXF 393 renal
# [9] = test system: HS 578T breast
# [10] = test system: SK-MEL-28 melanoma
SMILES,TGI [1],TGI [2],TGI [3],TGI [4],TGI [5],TGI [6],TGI [7],TGI [8],TGI [9],TGI [10],GI50 [1],GI50 [2],GI50 [3],GI50 [4],GI50 [5],GI50 [6],GI50 [7],GI50 [8],GI50 [9],GI50 [10]
O=C(O)COc1c(Cl)cc(Cl)c2cccnc12,> 100 µM,> 100 µM,> 100 µM,> 100 µM,> 100 µM,> 100 µM,> 100 µM,> 100 µM,> 100 µM,> 100 µM,–,–,–,–,–,–,–,–,–,–
CCCCn1c(=O)c2c(nc3n2CCCN3CCc2ccc(OCC(=O)NCCN(CC)CC)cc2)n(CCCC)c1=O,12.6 µM,12.8 µM,8.1 µM,9.94 µM,2.51 µM,15.6 µM,10.5 µM,6.76 µM,11.2 µM,2.04 µM,5.93 µM,5.16 µM,2.14 µM,2.63 µM,0.54 µM,5.97 µM,2.14 µM,1.65 µM,1.76 µM,0.98 µM
C#CCOc1cccc(Nc2ncnc3c(NC(=O)CCl)cccc23)c1,> 100 µM,36.4 µM,38.1 µM,30.7 µM,> 100 µM,40.6 µM,71.1 µM,68.4 µM,77.4 µM,> 100 µM,51.2 µM,15.7 µM,19.4 µM,15.8 µM,> 100 µM,17.5 µM,14.4 µM,27.3 µM,24.2 µM,36.4 µM
Nc1ccccc1SCc1csc(-c2ccc(Cl)cc2)n1,> 89.6 µM,> 100 µM,60.1 µM,> 100 µM,55.9 µM,23.9 µM,25 µM,60.4 µM,> 91.5 µM,> 94.5 µM,–,–,–,–,–,–,–,–,–,–
CCn1c2ccccc2c2cc(/C=C(/C#N)C(N)=O)ccc21,> 78.1 µM,> 100 µM,> 100 µM,> 77.9 µM,0.559 µM,> 67.3 µM,> 100 µM,19.3 µM,39.7 µM,> 100 µM,21.8 µM,19.9 µM,5.45 µM,5.53 µM,0.188 µM,4.76 µM,6.66 µM,2.57 µM,5.69 µM,40.1 µM
COc1ccc(C(=O)N2c3ccccc3Sc3ccccc32)c(OC)c1,> 100 µM,> 100 µM,> 100 µM,> 100 µM,16.6 µM,18.5 µM,> 100 µM,> 100 µM,> 100 µM,> 100 µM,0.715 µM,0.853 µM,0.615 µM,0.573 µM,0.307 µM,0.297 µM,0.447 µM,0.413 µM,0.482 µM,0.942 µM
O=[N+]([O-])c1cc(S(=O)(=O)Oc2ccccc2)ccc1Cl,18.8 µM,3.4 µM,2.6 µM,2.89 µM,4.05 µM,6.84 µM,45.1 µM,17.7 µM,6.73 µM,6.4 µM,6.21 µM,1.83 µM,1.27 µM,1.53 µM,1.68 µM,1.92 µM,2.17 µM,5.57 µM,2.7 µM,2.67 µM
O=C1NC(=O)C(c2cccc(Cl)c2)=C1Nc1ccc(O)c(Cl)c1,16.2 µM,> 25 µM,> 25 µM,> 25 µM,> 25 µM,> 25 µM,> 25 µM,24.8 µM,19.3 µM,> 25 µM,6.62 µM,11.2 µM,12.5 µM,7.72 µM,11.1 µM,8.75 µM,15 µM,6.4 µM,5.11 µM,13.7 µM
CN(CC(N)=O)C(=O)N(CCCl)N=O,> 100 µM,> 100 µM,> 100 µM,> 100 µM,> 100 µM,> 100 µM,> 100 µM,> 100 µM,> 100 µM,> 100 µM,–,–,–,–,–,–,–,–,–,–
COc1ccc(C2[C@@H](Cl)C(=O)N2c2cc(OC)c(OC)c(OC)c2)cc1Cl (stereo partly drawn),> 100 µM,30.6 µM,21.3 µM,> 100 µM,0.263 µM,0.463 µM,50.5 µM,65.5 µM,70.3 µM,87.3 µM,0.29 µM,0.291 µM,0.197 µM,0.146 µM,0.0285 µM,0.175 µM,0.275 µM,0.0615 µM,0.0705 µM,0.654 µM
BrCc1ccc(CBr)cc1,7.24 µM,18 µM,> 100 µM,6.92 µM,38.1 µM,–,–,16.2 µM,69 µM,23.3 µM,0.477 µM,5.82 µM,6.25 µM,1.99 µM,18.3 µM,7.6 µM,2.11 µM,5.61 µM,21.6 µM,8.29 µM
O=C(Nc1cccc(Nc2ncc(Br)c(NCCc3cnc[nH]3)n2)c1)N1CCCC1,32.4 µM,13.9 µM,45.8 µM,33.2 µM,16.6 µM,24.2 µM,24.8 µM,9.06 µM,4.1 µM,28.6 µM,4.95 µM,1.41 µM,5.22 µM,7.14 µM,4.31 µM,3.47 µM,2.41 µM,1.61 µM,0.747 µM,8.6 µM

# — PubChem BioAssay (NCI)
